The record followed here is patent US20240116985A1, “STAPLED PEPTIDES AND METHODS THEREOF” (priority 2020, published 2024).

In series [1] the target is T1, full-length beta-Catenin (Uniprot ID P35222) (Homo sapiens, UniProt P35222).
T1 construct: 10 nM full-length beta-Catenin (Uniprot ID P35222)
T1 sequence (P35222 1-781): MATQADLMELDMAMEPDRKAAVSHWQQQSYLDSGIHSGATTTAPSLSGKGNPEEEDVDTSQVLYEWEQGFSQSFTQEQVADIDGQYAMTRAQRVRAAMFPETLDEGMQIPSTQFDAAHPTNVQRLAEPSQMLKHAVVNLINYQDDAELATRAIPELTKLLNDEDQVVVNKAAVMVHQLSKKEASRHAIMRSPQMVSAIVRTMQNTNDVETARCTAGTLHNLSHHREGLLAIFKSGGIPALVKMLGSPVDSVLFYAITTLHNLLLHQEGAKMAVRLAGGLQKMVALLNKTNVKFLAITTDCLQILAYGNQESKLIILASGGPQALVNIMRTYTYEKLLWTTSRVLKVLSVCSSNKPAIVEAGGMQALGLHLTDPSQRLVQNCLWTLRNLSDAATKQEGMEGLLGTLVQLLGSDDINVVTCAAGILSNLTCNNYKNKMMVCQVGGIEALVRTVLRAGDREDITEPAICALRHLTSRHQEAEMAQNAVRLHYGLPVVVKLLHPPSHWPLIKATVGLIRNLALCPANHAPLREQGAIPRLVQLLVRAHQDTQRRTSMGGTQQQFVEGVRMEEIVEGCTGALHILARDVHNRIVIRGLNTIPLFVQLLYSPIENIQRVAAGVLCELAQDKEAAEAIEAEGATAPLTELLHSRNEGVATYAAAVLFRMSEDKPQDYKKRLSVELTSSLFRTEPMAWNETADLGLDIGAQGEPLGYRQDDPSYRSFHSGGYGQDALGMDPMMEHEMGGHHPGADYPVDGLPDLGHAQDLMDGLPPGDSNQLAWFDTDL
In words: Fluorescence polarization IC50 (beta-catenin / 5FAM-TCF4 10-53 competition). Type of series: binding.

The next series can be described thus: CHI Log D procedure. The following applies: for CHI Log D: pH 7.4; for chromatographic logD: pH 7.4, CHI Log D. Type of series: physicochemical.
Series [2] addresses T2, beta-catenin/TCF4 engagement (Homo sapiens, UniProt P35222).
T2 construct: expressed in transfected cells; host or cells: HEK293
T2 sequence (P35222 1-781): T1 sequence (P35222 1-781)
In words: Nano-BRET target engagement assay (B-cat-Halo & TCF4-Luc in HEK293 cells). Type of series: cell-based. In general terms: Bioluminescence resonance energy transfer reports proximity on the nanometre scale.

[3] abbreviates: fluorescence polarization, beta-catenin, read-out: FP EC50.
The mark [4] stands for this setting: absolute IC50, read-out: NanoBRET Abs IC50.

Like-named read-outs stand apart in the source and are kept apart here.

Regarding `CC(=O)N1CCC[C@]12CC=CCCCC1(CCCC=CCCCOC(=O)N3CC[C@@](C(=O)N[C@@H](Cc4cccc(Cl)c4)C(=O)N[C@@H](Cc4csc5ccccc45)C(=O)N[C@@H](CCC(N)=O)C(N)=O)(C3)NC(=O)[C@H](CC(N)=O)NC(=O)[C@H](Cc3ccccc3)NC(=O)[C@H](C)NC(=O)[C@H](C)NC(=O)[C@H](CN(CC(=O)O)CC(F)(F)F)NC(=O)[C@H](CC(=O)O)NC1=O)NC(=O)[C@H](CC(C)(C)C)NC(=O)[C@H](CC(=O)O)NC2=O` (stereo partly drawn) [I-926, Ac-PL3-Asp-Npg-B5-Asp-TfeGA-Ala-Ala-Phe-Asn-PyrS2-3C1F-BztA-Gln-NH2], the results for the IC50 in series [1] (setting [3]), in series [1] (read-out: beta-Catenin FP IC50) and in series [2] (read-out: NanoBRET IC50) were 0.043 µM, 0.043 µM and 17.1 µM, respectively. Besides, in “CHI Log D procedure”, the “CHI Log D” value was determined as 2.406.
Turning to `CC(=O)N1CCC[C@]12CC=CCCCC1(CCCC=CCCCOC(=O)N3CC[C@@](C(=O)N[C@@H](Cc4ccccc4C(F)(F)F)C(=O)N[C@@H](Cc4csc5ccccc45)C(=O)N[C@@H](CCC(N)=O)C(N)=O)(C3)NC(=O)[C@H](CC(N)=O)NC(=O)[C@H](Cc3ccccc3)NC(=O)[C@H](C)NC(=O)[C@H](C)NC(=O)[C@H](CN(CC(=O)O)CC(F)(F)F)NC(=O)[C@H](CC(=O)O)NC1=O)NC(=O)[C@H](CC(C)(C)C)NC(=O)[C@H](CC(=O)O)NC2=O` (stereo partly drawn) [I-928, Ac-PL3-Asp-Npg-B5-Asp-TfeGA-Ala-Ala-Phe-Asn-PyrS2-2F3MeF-BztA-Gln-NH2], the IC50 in series [1] (setting [3]) came to 0.021 µM; in series [1] (read-out: beta-Catenin FP IC50) it was 0.021 µM; in series [2] (read-out: NanoBRET Abs IC50), 6.1 µM; in series [2] (read-out: NanoBRET IC50), 5 µM. The “CHI Log D” value in the series “CHI Log D procedure” turned out to be 2.38.
Usually chromatographic logD stands for a lipophilicity value derived from retention on a column. For `CC(=O)N1CCC[C@]12CC=CCCCC1(CCCC=CCCCCCC[C@@](C)(C(=O)N[C@@H](Cc3ccccc3Cl)C(=O)N[C@@H](Cc3csc4ccccc34)C(=O)N[C@@H](CCC(N)=O)C(N)=O)NC(=O)[C@H](CC(N)=O)NC(=O)[C@H](Cc3ccccc3)NC(=O)[C@H](C)NC(=O)[C@H](C)NC(=O)[C@H](CN(CC(=O)O)CC(F)(F)F)NC(=O)[C@H](CC(=O)O)NC1=O)NC(=O)[C@H](CC(C)(C)C)NC(=O)[C@H](CC(=O)O)NC2=O` (stereo partly drawn) [I-929, Ac-PL3-Asp-Npg-B5-Asp-TfeGA-Ala-Ala-Phe-Asn-S8-2C1F-BztA-Gln-NH2], the values for the IC50 in series [1] (read-out: beta-Catenin FP IC50), in series [2] (read-out: NanoBRET Abs IC50) and in series [2] (read-out: NanoBRET IC50) were 0.023 µM, 10.3 µM and 7 µM, respectively. Further, the chromatographic logD in “CHI Log D procedure” came out at 2.74.
Turning to `CC(=O)N1CCC[C@]12CC=CCCCC1(CCCC=CCCCCCC[C@@](C)(C(=O)N[C@@H](Cc3ccccc3Cl)C(=O)N[C@@H](Cc3csc4ccccc34)C(=O)N[C@@H](CCC(N)=O)C(N)=O)NC(=O)[C@H]([C@@H](C)O)NC(=O)[C@H](Cc3ccccc3)NC(=O)[C@H](C)NC(=O)[C@H](C)NC(=O)[C@H](CN(CC(=O)O)CC(F)(F)F)NC(=O)[C@H](CC(=O)O)NC1=O)NC(=O)[C@H](CC(C)(C)C)NC(=O)[C@H](CC(=O)O)NC2=O` (stereo partly drawn) [I-930, Ac-PL3-Asp-Npg-B5-Asp-TfeGA-Ala-Ala-Phe-Thr-S8-2C1F-BztA-Gln-NH2], the results for the IC50 in series [1] (read-out: beta-Catenin FP IC50), in series [2] (read-out: NanoBRET Abs IC50) and in series [2] (read-out: NanoBRET IC50) were 0.037 µM, 13.5 µM and 5.6 µM, respectively. Besides, the chromatographic logD in the series “CHI Log D procedure” is 2.96.
Consider `CC(=O)N1CCC[C@]12CC=CCCCC1(CCCC=CCCCCCC[C@@](C)(C(=O)N[C@@H](Cc3ccccc3Br)C(=O)N[C@@H](Cc3csc4ccccc34)C(=O)N[C@@H](CCC(N)=O)C(N)=O)NC(=O)[C@H](CC(N)=O)NC(=O)[C@H](Cc3ccccc3)NC(=O)[C@H](C)NC(=O)[C@H](C)NC(=O)[C@H](CN(CC(=O)O)CC(F)(F)F)NC(=O)[C@H](CC(=O)O)NC1=O)NC(=O)[C@H](CC(C)(C)C)NC(=O)[C@H](CC(=O)O)NC2=O` (stereo partly drawn) [I-932, Ac-PL3-Asp-Npg-B5-Asp-TfeGA-Ala-Ala-Phe-Asn-S8-2BrF-BztA-Gln-NH2], for which the values for the IC50 in series [1] (read-out: beta-Catenin FP IC50) and in series [2] (setting [4]) were 0.035 µM and 11.4 µM, respectively. For the same compound, the chromatographic logD in “CHI Log D procedure” worked out at 2.77.
As for `CC(=O)N1CCC[C@]12CC=CCCCC1(CCCC=CCCCCCC[C@@](C)(C(=O)N[C@@H](Cc3cccc(Cl)c3)C(=O)N[C@@H](Cc3csc4ccccc34)C(=O)N[C@@H](CCC(N)=O)C(N)=O)NC(=O)[C@H](CC(N)=O)NC(=O)[C@H](Cc3ccccc3)NC(=O)[C@H](C)NC(=O)[C@H](C)NC(=O)[C@H](CN(CC(=O)O)CC(F)(F)F)NC(=O)[C@H](CC(=O)O)NC1=O)NC(=O)[C@H](CC(C)(C)C)NC(=O)[C@H](CC(=O)O)NC2=O` (stereo partly drawn) [I-933, Ac-PL3-Asp-Npg-B5-Asp-TfeGA-Ala-Ala-Phe-Asn-S8-3C1F-BztA-Gln-NH2], the IC50 in series [1] (read-out: beta-Catenin FP IC50) was 0.168 µM; in series [2] (read-out: NanoBRET Abs IC50), 22.2 µM; in series [2] (read-out: NanoBRET IC50), more than 20 µM. The chromatographic logD in “CHI Log D procedure” came out at 3.03.
In the case of `C#CCOCCC(=O)NCCCC[C@H](NC(=O)[C@H](CCC(N)=O)NC(=O)[C@H](Cc1csc2ccccc12)NC(=O)[C@H](Cc1ccsc1)NC(=O)[C@]12CCN(C1)C(=O)OCCCC=CCCCC1(CCCC=CC[C@]3(CCCN3C(C)=O)C(=O)N[C@@H](CC(=O)O)C(=O)N[C@@H](CC(C)(C)C)C(=O)N1)C(=O)N[C@@H](CC(=O)O)C(=O)N[C@@H](CC(=O)O)C(=O)N[C@@H](C)C(=O)N[C@@H](C)C(=O)N[C@@H](Cc1ccccc1)C(=O)N[C@@H](CC(N)=O)C(=O)N2)C(N)=O` (stereo partly drawn) [I-935, Ac-PL3-Asp-Npg-B5-Asp-Asp-Ala-Ala-Phe-Asn-PyrS2-3Thi-BztA-Gln-[PropynPEG1]Lys-NH2], the figures for the IC50 in series [1] (read-out: beta-Catenin FP IC50) and in series [2] (read-out: NanoBRET Abs IC50) were 0.008 µM and 33.1 µM, respectively. In the series “CHI Log D procedure”, this compound registered a chromatographic logD of 1.93.
As to `C#CCOCCOCCC(=O)NCCCC[C@H](NC(=O)[C@H](CCC(N)=O)NC(=O)[C@H](Cc1csc2ccccc12)NC(=O)[C@H](Cc1ccsc1)NC(=O)[C@]12CCN(C1)C(=O)OCCCC=CCCCC1(CCCC=CC[C@]3(CCCN3C(C)=O)C(=O)N[C@@H](CC(=O)O)C(=O)N[C@@H](CC(C)(C)C)C(=O)N1)C(=O)N[C@@H](CC(=O)O)C(=O)N[C@@H](CC(=O)O)C(=O)N[C@@H](C)C(=O)N[C@@H](C)C(=O)N[C@@H](Cc1ccccc1)C(=O)N[C@@H](CC(N)=O)C(=O)N2)C(N)=O` (stereo partly drawn) [I-936, Ac-PL3-Asp-Npg-B5-Asp-Asp-Ala-Ala-Phe-Asn-PyrS2-3Thi-BztA-Gln-[PropynPEG2]Lys-NH2], the IC50 in series [1] (read-out: beta-Catenin FP IC50) worked out at 0.007 µM; in series [2] (read-out: NanoBRET Abs IC50), 22.2 µM. This compound also yielded a chromatographic logD in the series “CHI Log D procedure” of 1.94.
Consider `C#CCOCCOCCOCCC(=O)NCCCC[C@H](NC(=O)[C@H](CCC(N)=O)NC(=O)[C@H](Cc1csc2ccccc12)NC(=O)[C@H](Cc1ccsc1)NC(=O)[C@]12CCN(C1)C(=O)OCCCC=CCCCC1(CCCC=CC[C@]3(CCCN3C(C)=O)C(=O)N[C@@H](CC(=O)O)C(=O)N[C@@H](CC(C)(C)C)C(=O)N1)C(=O)N[C@@H](CC(=O)O)C(=O)N[C@@H](CC(=O)O)C(=O)N[C@@H](C)C(=O)N[C@@H](C)C(=O)N[C@@H](Cc1ccccc1)C(=O)N[C@@H](CC(N)=O)C(=O)N2)C(N)=O` (stereo partly drawn) [I-937, Ac-PL3-Asp-Npg-B5-Asp-Asp-Ala-Ala-Phe-Asn-PyrS2-3Thi-BztA-Gln-[PropynPEG3]Lys-NH2], for which the IC50 in series [1] (read-out: beta-Catenin FP IC50) came out at 0.009 µM; in series [2] (read-out: NanoBRET Abs IC50), 28.8 µM. This compound also yielded a chromatographic logD in the series “CHI Log D procedure” of 1.94.
As to `CC(=O)N1CCC[C@]12CC=CCCCC1(CCCC=CCCCOC(=O)N3CC[C@@](C(=O)N[C@@H](Cc4ccccc4Cl)C(=O)N[C@@H](Cc4csc5ccccc45)C(=O)N[C@@H](CCC(N)=O)C(N)=O)(C3)NC(=O)[C@H](CC(N)=O)NC(=O)[C@H](Cc3ccccc3)NC(=O)[C@H](C)NC(=O)[C@H](CO)NC(=O)[C@H](CN(CC(=O)O)CC(F)(F)F)NC(=O)[C@H](CC(=O)O)NC1=O)NC(=O)[C@H](CC(C)(C)C)NC(=O)[C@H](CC(=O)O)NC2=O` (stereo partly drawn) [I-1009, Ac-PL3-Asp-Npg-B5-Asp-TfeGA-Ser-Ala-Phe-Asn-PyrS2-2C1F-BztA-Gln-NH2], the IC50 was determined as 0.011 µM in series [1] (read-out: beta-Catenin FP IC50) and 33.3 µM in series [2] (setting [4]). This compound returned a chromatographic logD in the series “CHI Log D procedure” of 2.04.
As to `CC[C@H](C)[C@@H]1NC(=O)[C@H](CN(CC(=O)O)CC(F)(F)F)NC(=O)[C@H](CC(=O)O)NC(=O)C2(CCCC=CCCCOC(=O)N3CC[C@@](C(=O)N[C@@H](Cc4ccccc4Cl)C(=O)N[C@@H](Cc4csc5ccccc45)C(=O)N[C@@H](CCC(N)=O)C(N)=O)(C3)NC(=O)[C@H](CC(N)=O)NC(=O)[C@H](Cc3ccccc3)NC(=O)[C@H](C)NC1=O)CCCC=CC[C@]1(CCCN1C(C)=O)C(=O)N[C@@H](CC(=O)O)C(=O)N[C@@H](CC(C)(C)C)C(=O)N2` (stereo partly drawn) [I-1010, Ac-PL3-Asp-Npg-B5-Asp-TfeGA-Ile-Ala-Phe-Asn-PyrS2-2C1F-BztA-Gln-NH2], the IC50 is 0.008 µM in series [1] (read-out: beta-Catenin FP IC50) and 13.3 µM in series [2] (setting [4]). The same compound had a chromatographic logD in the series “CHI Log D procedure” of 2.36.
